Laboratory results: ChEMBL document CHEMBL5550126, “Identification of naphthalimide-derivatives as novel PBD-targeted polo-like kinase 1 inhibitors with efficacy in drug-resistant lung cancer cells” (Eur J Med Chem, 2024)
Activity calls are given as the source filed them. No cut-off for these calls is given here.

Experiments:
[1] = Toxicity in male BALB/c nude mouse xenografted with human A549/DDP cells assessed as liver damage at 30 to 50 mg/kg, ip administered every 2 days for 32 days by H and E staining based analysis; type: organism-based, A549/CDDP; settings: in vivo, 768 h, dose 30-50 mg/kg, time 32 day
[2] = GSH reactivity in human A549 cells assessed as increase in fluorescence intensity measured after 48 hrs; type: ADME, cell-based; settings: a549, 48 h, dose 0-9 µM
[3] = test system: A549/CDDP; assay: Antitumor activity against human A549/DDP cells assessed as male BALB/c nude mouse assessed as median survival time at 30 mg/kg, ip administered every 2 days for 32 days (reference value: 38 days); type: functional; settings: time 32 day
[4] = GSH reactivity of compound in PBS assessed as increase in fluorogenic response at 0 to 800 uM measured after 60 mins by fluorescence spectrophotometer; type: physicochemical; settings: buffer, 1 h, dose 0-800 µM
[5] = Toxicity in male BALB/c nude mouse xenografted with human gefitinib resistant NCI-H1975 cells assessed as liver damage at 30 mg/kg, po administered every 2 days for 20 days and measured 3 times a week by H and E staining based analysis; type: organism-based; settings: in vivo, 480 h, time 20 day
[6] = Toxicity in male BALB/c nude mouse xenografted with human A549/DDP cells assessed as kidney damage at 30 to 50 mg/kg, ip administered every 2 days for 32 days by H and E staining based analysis; type: organism-based, A549/CDDP; settings: in vivo, 768 h, dose 30-50 mg/kg, time 32 day
[7] = test system: A549/CDDP; assay: Effect on CDK2 protein expression in human A549/DDP cells assessed as effect on protein abundance at 0 to 6 uM measured after 48 hrs by Western blot analysis; type: functional, cell-based; settings: dose 0-6 µM
[8] = Antitumor activity against human gefitinib resistant NCI-H1975 cells xenografted in male BALB/c nude mouse assessed as inhibition of tumor growth at 30 mg/kg, po administered every 2 days for 20 days and measured 3 times a week relative to control; type: functional; settings: gefitinib resistant NCI-H1975 cell, 480 h, time 20 day, read-out: TGI
[9] = test system: A549/CDDP; assay: Disruption of redox homeostasis in human A549/DDP cells assessed as induction of cell death; type: functional, cell-based
[10] = test system: A549; assay: Induction of mitotic catastrophe in human A549 cells assessed as downregulation of CDK1-cyclin B1 complex protein expression at 1.5 to 6 uM measured after 48 hrs by Western blot analysis; type: functional, cell-based; settings: dose 1.5-6 µM
[11] = test system: A549/CDDP; assay: Antitumor activity against human A549/DDP cells assessed as male BALB/c nude mouse assessed as tumor growth inhibition at 30 mg/kg, ip administered every 2 days for 32 days and measured 3 times a week relative to control; type: functional; settings: 768 h, time 32 day, read-out: TGI
[12] = Toxicity in male BALB/c nude mouse xenografted with human A549/DDP cells assessed as change in heart index at 30 mg/kg, ip administered every 2 days for 32 days; type: organism-based, A549/CDDP; settings: in vivo, 768 h, time 32 day
[13] = Toxicity in male BALB/c nude mouse xenografted with human A549/DDP cells assessed as change in lung index at 30 to 50 mg/kg, ip administered every 2 days for 32 days; type: organism-based, A549/CDDP; settings: in vivo, 768 h, dose 30-50 mg/kg, time 32 day
[14] = target: T1, Serine/threonine-protein kinase PLK1 (Homo sapiens, UniProt P53350); assay: Binding affinity to recombinant PLK1 (unknown origin) assessed as dissociation constant by SPR analysis
T1 sequence (P53350 whole entry): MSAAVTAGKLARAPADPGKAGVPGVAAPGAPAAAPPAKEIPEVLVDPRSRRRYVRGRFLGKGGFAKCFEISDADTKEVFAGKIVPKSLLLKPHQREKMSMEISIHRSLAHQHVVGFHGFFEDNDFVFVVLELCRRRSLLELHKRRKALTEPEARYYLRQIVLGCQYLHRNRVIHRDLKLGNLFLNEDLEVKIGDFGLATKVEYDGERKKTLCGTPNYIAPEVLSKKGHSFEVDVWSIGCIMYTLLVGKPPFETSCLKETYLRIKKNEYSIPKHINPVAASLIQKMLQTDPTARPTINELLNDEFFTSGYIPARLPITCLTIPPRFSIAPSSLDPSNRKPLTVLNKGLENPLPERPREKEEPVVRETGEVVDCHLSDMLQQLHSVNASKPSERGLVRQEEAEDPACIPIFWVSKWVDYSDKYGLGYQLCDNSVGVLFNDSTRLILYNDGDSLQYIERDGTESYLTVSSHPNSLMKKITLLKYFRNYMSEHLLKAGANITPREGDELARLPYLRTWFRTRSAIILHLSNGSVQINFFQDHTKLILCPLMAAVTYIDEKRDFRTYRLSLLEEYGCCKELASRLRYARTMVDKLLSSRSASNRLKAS

[15] = test system: A549/CDDP; assay: Antitumor activity against human A549/DDP cells assessed as male BALB/c nude mouse assessed as reduction in tumor growth at 30 to 50 mg/kg, ip administered every 2 days for 32 days and measured 3 times a week; type: functional, organism-based; settings: dose 30-50 mg/kg, time 32.0 day
[16] = Binding affinity to cysteine in PBS assessed as increase in fluorogenic response at 5 uM by UV lamp irradiation/fluorescence spectrophotometer
[17] = test system: T-24; assay: Anticancer activity against human T24 cells assessed as inhibition of cell growth incubated for 48 hrs by crystal violet staining based analysis; type: functional; settings: T-24, 48 h
[18] = Toxicity in male BALB/c nude mouse xenografted with human A549/DDP cells assessed as change in liver index at 30 to 50 mg/kg, ip administered every 2 days for 32 days; type: organism-based, A549/CDDP; settings: in vivo, 768 h, dose 30-50 mg/kg, time 32 day
[19] = Toxicity in male BALB/c nude mouse xenografted with human A549/DDP cells assessed as heart damage at 30 to 50 mg/kg, ip administered every 2 days for 32 days by H and E staining based analysis; type: organism-based, A549/CDDP; settings: in vivo, 768 h, dose 30-50 mg/kg, time 32 day
[20] = test system: A549/CDDP; assay: Antitumor activity against human A549/DDP cells assessed as male BALB/c nude mouse assessed as increase in survival time at 30 to 50 mg/kg, ip administered every 2 days for 32 days; type: functional, organism-based; settings: dose 30-50 mg/kg, time 32.0 day
[21] = test system: A549; assay: Induction of mitotic catastrophe in human A549 cells assessed as downregulation of CDC25 protein expression at 1.5 to 6 uM measured after 48 hrs by Western blot analysis; type: functional, cell-based; settings: dose 1.5-6 µM
[22] = target: T1, Serine/threonine-protein kinase PLK1; assay: Binding affinity to FLAG-tagged PLK1 PBD region (unknown origin) transfected in human A549 cells at 10 uM incubated for 1 hr by coimmunoprecipitation-MS analysis; type: cell-based
[23] = test system: A549/CDDP; assay: Antitumor activity against human A549/DDP cells assessed as male BALB/c nude mouse assessed as tumor regression at 50 mg/kg, ip administered every 2 days for 32 days and measured 3 times a week; type: functional, organism-based; settings: time 32.0 day
[24] = test system: A549/CDDP; assay: Antitumor activity against human A549/DDP cells assessed as male BALB/c nude mouse assessed as reduction in cell proliferation by measuring reduction in […] positive cells in tumor at 30 to 50 mg/kg, ip administered every 2 days for 32 days by immunohistochemistry; type: functional, organism-based; settings: dose 30-50 mg/kg, time 32.0 day
[25] = test system: A549/CDDP; assay: Effect on cyclin A2 protein expression in human A549/DDP cells assessed as effect on protein abundance at 0 to 6 uM measured after 48 hrs by Western blot analysis; type: functional, cell-based; settings: dose 0-6 µM
[26] = test system: A549/CDDP; assay: Effect on p-CDK2 protein expression in human A549/DDP cells assessed as effect on protein abundance at 0 to 6 uM measured after 48 hrs by Western blot analysis; type: functional, cell-based; settings: dose 0-6 µM
[27] = test system: SK-OV-3; assay: Anticancer activity against human SK-OV-3 cells assessed as inhibition of cell growth incubated for 48 hrs by crystal violet staining based analysis; type: functional; settings: SK-OV-3, 48 h
[28] = test system: A549; assay: Induction of morphological changes in human A549 cells assessed as increase in mitotic catastrophe in nucleus at 0 to 3 uM measured after 48 hrs by immunofluorescence based laser confocal microscopic analysis; type: functional, cell-based; settings: dose 0-3 µM
[29] = Antiproliferative activity against human gefitinib resistant NCI-H1975 cells assessed as inhibition of cell growth incubated for 48 hrs by crystal violet staining based analysis; type: functional
[30] = test system: A549/CDDP; assay: Disruption of redox homeostasis in human A549/DDP cells assessed as increase in ROS level at 0 to 9 uM measured after 48 hrs; type: functional, cell-based; settings: dose 0-9 µM
[31] = Toxicity in male BALB/c nude mouse xenografted with human A549/DDP cells assessed as change in kidney index at 30 to 50 mg/kg, ip administered every 2 days for 32 days; type: organism-based, A549/CDDP; settings: in vivo, 768 h, dose 30-50 mg/kg, time 32 day
[32] = test system: A549/CDDP; assay: Induction of cell cycle arrest at G2/M phase in human A549/DDP cells at 0 to 15 uM measured after 48 hrs by RNase A/PI staining based flow cytometry analysis; type: functional; settings: dose 0-15 µM
[33] = test system: A549/CDDP; assay: Anticancer activity against human A549/DDP cells assessed as inhibition of cell growth incubated for 48 hrs by crystal violet staining based analysis; type: functional

Structure (SMILES): CN(C)CCN1C(=O)c2cccc3c(S(=O)(=O)NCc4ccc(F)cc4)ccc(c23)C1=O
- Activity [1]: Non-Toxic
- Drug metabolism [2]: Metabolite_Detected
- MSD [3]: 53 days
- Drug metabolism [4]: Metabolite_Detected
- Activity [5]: Non-Toxic
- Activity [6]: Non-Toxic
- Activity [7]: Active
- inhibition in vivo at 30 mg/kg [8]: 44%
- Activity [9]: Active
- Activity [10]: Active
- inhibition in vivo at 30 mg/kg [11]: 42%
- Activity [12]: Toxic
- Activity [13]: Non-Toxic
- Kd [14]: 0.29 µM
- Activity [15]: Active
- Activity [16]: inactive
- IC50 [17]: 2.9 µM
- Activity [18]: Non-Toxic
- Activity [19]: Non-Toxic
- Activity [20]: Active
- Activity [21]: Active
- Activity [22]: Active
- Activity [23]: Active
- Activity [24]: Active
- Activity [25]: Active
- Activity [26]: Active
- IC50 [27]: 2.84 µM
- Activity [28]: Active
- IC50 [29]: 7.83 µM
- Activity [30]: Active
- Activity [31]: Non-Toxic
- Activity [32]: Active
- IC50 [33]: 2.65 µM
